Measurements: patent publication US20120129872A1, “FUSED HETEROARYL INHIBITORS OF PRO-MATRIX METALLOPROTEINASE ACTIVATION” (priority 2010, published 2012)

Tests used:
MMP9 = target: T1, MMP9 (Rattus norvegicus, UniProt P50282); assay: Pro and active MMP9 in ankles of rats with SCW-induced arthritis (Western blot); format: in vivo
T1 construct: endogenous in cells; host or cells: primary synoviocytes from arthritic female Lewis rats
Description: Hind-limbs were skinned, severed just above the tibia-tarsus joint and below the metatarsals, and the tibia-tarsus joints (ankles) were weighed, snap frozen and pulverized on dry ice using a hammer and anvil. The pulverized tissue was suspended in 3 volumes (w:v) of ice-cold homogenization buffer containing 50 mM Tris pH 7.5, 150 mM NaCl, 5 mM EDTA, 1% Triton X100, 0.05% Brij 30, 10% dimethylsulfoxide and Complete EDTA-free Protease Inhibitor Cocktail (Roche Diagnostics). The suspended tissue was homogenized sequentially with a Kinematica AG Polytron and a Dounce homogenizer. Homogenates were centrifuged at 16,000×g for 10 min at 4° C. and the soluble fractions were saved. Dimethylsulfoxide was removed from a portion of each soluble fraction using PD MiniTrap™ G-25 desalting columns (GE Healthcare). Homogenates (0.25 mL), free of DMSO, were diluted with an equal volume of binding buffer (i.e., homogenization buffer without dimethylsufoxide) and adjusted to contain 50 μL of a 50% slurry of gelatin-conjugated sepharose. Following 2 hours of rotation at 4° C. the beads were washed twice in binding buffer and eluted in 100 μL 2×-reducing Laemmli buffer with heating to 95° C. for 5 minutes. […]

SCW-induced arthritis = assay: Efficacy in rats with SCW-induced arthritis (ankle thickness, clinical scores); format: in vivo, rat; settings: 5, 20, 50 mg/kg BID
Source text: A polyarthritis can be induced in female Lewis rats following i.p. administration of streptococcal cell wall (SCW) […] (PG-PS) (J Exp Med 1977; 146:1585-1602). The model has an acute phase (days 3-7) that is complement and neutrophil-dependent and that resolves. A chronic erosive phase begins at about day ten and is dependent on the development of specific T cell immunity to the PG-GS, which resists digestion and remains present in synovial macrophages for months. Like rheumatoid arthritis, SCW-induced arthritis is reduced by TNF inhibitors, and the dependence of SCW-induced arthritis on macrophages (Rheumatology; 2001; 40:978-987) and the strong association of rheumatoid arthritis severity with synovial-tissue macrophage counts (Ann Rheum Dis; 2005; 64:834-838) makes SCW-arthritis an attractive model for testing potential therapeutic agents. SCW PG-PS 10S (Beckton Dickinson Cat#210866) suspended in saline was vortexed for 30 seconds and sonicated for 3 min with a probe type sonicator prior to injection. […]
To induce arthritis, Female Lewis (LEW/N) rats, 5-6 weeks of age (80-100 g) were injected (i.p.) with SCW PG-PS as described above. […] Each ankle was measured 3 times and averaged, and treatment groups were randomized based on ankle thickness (Table 6). […]

T1 sequence (P50282 108-708): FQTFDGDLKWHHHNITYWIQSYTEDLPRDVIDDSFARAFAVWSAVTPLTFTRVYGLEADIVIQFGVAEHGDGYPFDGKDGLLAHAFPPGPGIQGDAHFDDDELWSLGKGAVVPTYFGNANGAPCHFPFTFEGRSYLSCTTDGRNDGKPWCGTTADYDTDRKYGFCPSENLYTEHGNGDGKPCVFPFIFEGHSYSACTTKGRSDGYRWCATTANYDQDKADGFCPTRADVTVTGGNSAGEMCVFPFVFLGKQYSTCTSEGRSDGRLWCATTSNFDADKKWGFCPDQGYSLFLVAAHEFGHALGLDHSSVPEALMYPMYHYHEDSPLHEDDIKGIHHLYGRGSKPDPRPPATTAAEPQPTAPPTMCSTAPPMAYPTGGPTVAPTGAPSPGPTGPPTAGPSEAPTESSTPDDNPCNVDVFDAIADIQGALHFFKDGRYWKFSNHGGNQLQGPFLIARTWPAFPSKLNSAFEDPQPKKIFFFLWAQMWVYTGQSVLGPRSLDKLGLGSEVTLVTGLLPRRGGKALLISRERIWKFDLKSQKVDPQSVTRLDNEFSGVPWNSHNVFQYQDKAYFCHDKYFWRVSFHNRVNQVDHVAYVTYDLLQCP

SMILES: Cc1nc(C)c(-c2csc(Nc3cc(S(N)(=O)=O)ccc3OC(C)C)n2)s1 [Compound-α, 3-(2′,4′-Dimethyl-[4,5′]bithiazolyl-2-ylamino)-4-isopropoxy-benzenesulfonamide•HBr]
- Abundance of proMMP9 in ankles (MMP9; Day 26, FIG. 3A lanes 4-9): did not reduce the abundance of proMMP9
- Abundance of proMMP9 in ankles (MMP9; Day 26, FIG. 3A lanes 4-9, listed as Compound a): did not reduce the abundance of proMMP-9
- Effect on ankle thickness measurements (SCW-induced arthritis; Day 18-26): dose-dependent decrease in ankle thickness measurements
- Effect on clinical score measurements (SCW-induced arthritis; significant effects emerging at 20 mg/kg): dose dependent decrease in clinical score measurements
